The structures appear in SMILES notation. Activity calls are given as the source filed them. The rule behind the calls is not given here. A value given as a limit tells only on which side of the number the result lay.

Common to all, as to assay: CXCR6 receptor antagonists, dose response, cell-based, beta-arrestin, DiscoveRx, APJ panel, uHTS hits (AID 624129)
Assay [1] addresses Apelin receptor (Homo sapiens) (UniProt P35414). Conditions: CXCR6 beta-arrestin (DiscoveRx) antagonist cell assay, APJ.
For assay [2], the target named is Beta-galactosidase (Escherichia coli) (UniProt Q8VNN2). Conditions: CXCR6 beta-arrestin (DiscoveRx) antagonist cell assay, b-galactosidase.
The target in assay [3] is C-C chemokine receptor type 6 (Homo sapiens) (UniProt P51684). Conditions: CXCR6 beta-arrestin (DiscoveRx) antagonist cell assay.
Assay [4] has as its target C-X-C chemokine receptor type 6 (Homo sapiens) (UniProt O00574). Conditions: CXCR6 beta-arrestin (DiscoveRx) antagonist cell assay; for inhibition: CXCR6, run 1, dose range 2, at 80 µM (top of the series).
Setting [5] is: dose range 1, mean IC50 across replicates.
Setting [6] is: CCR6, dose range 1, mean IC50 across replicates.
Setting [7] is: CXCR6, dose range 1, mean IC50 across replicates.

Sequence of Beta-galactosidase (Escherichia coli) (Q8VNN2 whole entry, looked up): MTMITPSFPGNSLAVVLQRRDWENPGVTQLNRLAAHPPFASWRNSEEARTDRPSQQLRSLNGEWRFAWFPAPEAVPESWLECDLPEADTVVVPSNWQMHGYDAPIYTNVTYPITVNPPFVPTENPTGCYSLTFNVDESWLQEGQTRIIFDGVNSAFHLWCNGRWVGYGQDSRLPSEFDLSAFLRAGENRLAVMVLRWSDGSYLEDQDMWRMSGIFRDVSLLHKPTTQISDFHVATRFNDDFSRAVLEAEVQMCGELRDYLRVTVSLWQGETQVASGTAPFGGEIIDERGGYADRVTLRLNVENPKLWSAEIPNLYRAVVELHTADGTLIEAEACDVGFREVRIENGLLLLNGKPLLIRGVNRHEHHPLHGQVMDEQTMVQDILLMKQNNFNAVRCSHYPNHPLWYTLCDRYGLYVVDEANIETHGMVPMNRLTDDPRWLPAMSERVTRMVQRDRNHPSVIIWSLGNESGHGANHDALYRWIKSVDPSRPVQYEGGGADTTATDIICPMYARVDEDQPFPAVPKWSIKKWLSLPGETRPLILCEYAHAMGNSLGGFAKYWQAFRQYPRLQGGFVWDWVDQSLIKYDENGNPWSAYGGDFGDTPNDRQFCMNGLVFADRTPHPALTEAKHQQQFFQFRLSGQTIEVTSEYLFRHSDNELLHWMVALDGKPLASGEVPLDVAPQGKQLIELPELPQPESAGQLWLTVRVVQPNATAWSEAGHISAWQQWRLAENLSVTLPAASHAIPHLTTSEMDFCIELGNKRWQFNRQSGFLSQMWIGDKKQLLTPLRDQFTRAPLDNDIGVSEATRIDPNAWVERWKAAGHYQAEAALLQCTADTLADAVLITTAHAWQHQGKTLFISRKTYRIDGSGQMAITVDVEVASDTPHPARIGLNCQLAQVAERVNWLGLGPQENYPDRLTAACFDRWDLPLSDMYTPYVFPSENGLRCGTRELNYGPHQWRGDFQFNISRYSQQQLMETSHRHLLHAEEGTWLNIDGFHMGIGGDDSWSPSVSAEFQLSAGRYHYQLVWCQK
Sequence of C-X-C chemokine receptor type 6 (Homo sapiens) (O00574 whole entry, looked up): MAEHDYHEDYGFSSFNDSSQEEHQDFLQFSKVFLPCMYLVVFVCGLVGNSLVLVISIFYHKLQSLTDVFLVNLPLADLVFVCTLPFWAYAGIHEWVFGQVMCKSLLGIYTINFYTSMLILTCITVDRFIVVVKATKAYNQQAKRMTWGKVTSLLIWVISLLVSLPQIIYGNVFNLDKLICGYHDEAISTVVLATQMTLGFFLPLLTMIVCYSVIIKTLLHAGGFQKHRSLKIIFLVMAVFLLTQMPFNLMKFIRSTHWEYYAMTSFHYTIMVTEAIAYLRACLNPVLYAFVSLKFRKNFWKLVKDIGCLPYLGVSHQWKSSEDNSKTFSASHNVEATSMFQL

On to `O=C1C=CC(=O)N1c1cccc(-c2ccccc2)c1`, for which the IC50 – broadly, the concentration at which inhibition is half-maximal – in assay [1] (setting [5]) was 22.8 µM; in assay [1] (run 2, dose range 1), 22.8 µM; in assay [1] (run 3, dose range 1), above 80 µM; in assay [2] (dose range 1), > 80 µM (inactive); in assay [2] (setting [5]), above 80 µM; in assay [3] (CCR6, dose range 1), 47 µM. Further, the IC50 was 47 µM in assay [3] (setting [6]); above 80 µM in assay [3] (CCR6, run 2, dose range 1); 9.66 µM in assay [4] (CXCR6, dose range 1); 9.66 µM in assay [4] (setting [7]); above 80 µM in assay [4] (CXCR6, run 2, dose range 1). Moreover, in assay [4], the inhibition – broadly, the drop in the measured response relative to a control, in per cent – worked out at 21.2%.

For the compound `O=S(=O)(/C=C/C=C/S(=O)(=O)c1ccccc1)c1ccccc1`, the half-maximal inhibitory concentration (IC50) in assay [1] (dose range 1) is 23.5 µM; in assay [1] (setting [5]), 24.6 µM; in assay [1] (run 2, dose range 1), 25.7 µM; in assay [1] (run 3, dose range 1), above 80 µM; in assay [2] (dose range 1) it was > 80 µM (inactive); in assay [2] (setting [5]), above 80 µM. For the same compound, the IC50 in assay [3] (CCR6, dose range 1) was 7.48 µM; in assay [3] (setting [6]) it was 7.41 µM; in assay [3] (CCR6, run 2, dose range 1), 7.33 µM; in assay [4] (CXCR6, dose range 1), 11.6 µM; in assay [4] (setting [7]) it was 10.5 µM; in assay [4] (CXCR6, run 1, dose range 2), 10.1 µM. Besides, the concentration for half-maximal inhibition (IC50) in assay [4] (CXCR6, run 2, dose range 1) came out at 8.76 µM; in assay [4] (CXCR6, run 2, dose range 2), 11.4 µM.

As for `C/C(=N\NC(=O)C(c1ccccc1)c1ccccc1)c1ccccn1`, the IC50 was 7.16 µM in assay [1] (dose range 1); 12 µM in assay [1] (setting [5]); 9.32 µM in assay [1] (run 2, dose range 1); 19.6 µM in assay [1] (run 3, dose range 1); > 80 µM (inactive) in assay [2] (dose range 1); above 80 µM in assay [2] (setting [5]). Moreover, the IC50 in assay [3] (CCR6, dose range 1) is 1.99 µM; in assay [3] (setting [6]), 2.25 µM; in assay [3] (CCR6, run 2, dose range 1), 2.52 µM; in assay [4] (CXCR6, dose range 1) it was 3.04 µM; in assay [4] (setting [7]), 4.66 µM; in assay [4] (CXCR6, run 1, dose range 2) it was 2.25 µM. Moreover, the half-inhibitory concentration (IC50) turned out to be 10.9 µM in assay [4] (CXCR6, run 2, dose range 1) and 2.44 µM in assay [4] (CXCR6, run 2, dose range 2).

`CCCC(=O)OCCNc1cc(Sc2nccn2C)c2nonc2c1[N+](=O)[O-]`: the concentration for half-maximal inhibition (IC50) was 8.29 µM in assay [1] (dose range 1); 6.22 µM in assay [1] (setting [5]); 4.43 µM in assay [1] (run 2, dose range 1); 5.96 µM in assay [1] (run 3, dose range 1); > 80 µM (inactive) in assay [2] (dose range 1); above 80 µM in assay [2] (setting [5]). The IC50 in assay [3] (CCR6, dose range 1) is 4.87 µM; in assay [3] (setting [6]) it was 4.62 µM; in assay [3] (CCR6, run 2, dose range 1), 4.38 µM; in assay [4] (CXCR6, dose range 1) it was 4.86 µM; in assay [4] (setting [7]), 5.03 µM; in assay [4] (CXCR6, run 1, dose range 2) it was 5.61 µM. Further, the IC50 in assay [4] (CXCR6, run 2, dose range 1) amounted to 5.05 µM; in assay [4] (CXCR6, run 2, dose range 2), 4.59 µM.

As to `CC(=O)OC1C2(CC3N4C(=O)C5(CO)SSC4(CC31O)C(=O)N5C)OC(C)C(C)(C)C2=O` (stereo unspecified), the half-inhibitory concentration (IC50) was 1.1 µM in assay [1] (dose range 1); 1.22 µM in assay [1] (setting [5]); 0.918 µM in assay [1] (run 2, dose range 1); 1.64 µM in assay [1] (run 3, dose range 1); > 80 µM (inactive) in assay [2] (dose range 1); above 80 µM in assay [2] (setting [5]). Besides, the half-maximal inhibitory concentration (IC50) in assay [3] (CCR6, dose range 1) is 1.34 µM; in assay [3] (setting [6]), 1.35 µM; in assay [3] (CCR6, run 2, dose range 1), 1.36 µM; in assay [4] (CXCR6, dose range 1), 0.925 µM; in assay [4] (setting [7]), 0.724 µM; in assay [4] (CXCR6, run 1, dose range 2), 0.497 µM. Moreover, the IC50 in assay [4] (CXCR6, run 2, dose range 1) amounted to 0.936 µM; in assay [4] (CXCR6, run 2, dose range 2) it was 0.54 µM.

Regarding `O=[N+]([O-])/C=C/c1c(Cl)cccc1Cl`, the IC50 in assay [1] (setting [5]) was 14.3 µM; in assay [1] (run 2, dose range 1), above 80 µM; in assay [1] (run 3, dose range 1), 14.3 µM; in assay [2] (dose range 1), > 80 µM (inactive); in assay [2] (setting [5]) it was above 80 µM; in assay [3] (setting [6]) it was above 80 µM. The IC50 was above 80 µM in assay [3] (CCR6, run 2, dose range 1); > 80 µM (inactive) in assay [4] (CXCR6, dose range 1); above 80 µM in assay [4] (setting [7]); above 80 µM in assay [4] (CXCR6, run 2, dose range 1). Moreover, in assay [4], the inhibition amounted to 54%.

With `COc1ccc(C(=O)/C=C/C(=O)N(CC(=O)NC2CCCCC2)CC2CCCO2)c(O)c1` (stereo unspecified), the IC50 in assay [1] (setting [5]) is above 80 µM; in assay [1] (run 2, dose range 1) it was above 80 µM; in assay [1] (run 3, dose range 1), above 80 µM; in assay [2] (dose range 1), > 80 µM (inactive); in assay [2] (setting [5]) it was above 80 µM; in assay [3] (setting [6]) it was above 80 µM. Moreover, the half-maximal inhibitory concentration (IC50) in assay [3] (CCR6, run 2, dose range 1) was above 80 µM; in assay [4] (CXCR6, dose range 1) it was > 80 µM (inactive); in assay [4] (setting [7]) it was above 80 µM; in assay [4] (CXCR6, run 2, dose range 1), above 80 µM. Moreover, the inhibition in assay [4] was -34.5%.

Turning to `COc1ccc(Nc2ccc([N+](=O)[O-])c3nonc23)c(OC)c1`, the IC50 is above 80 µM in assay [1] (setting [5]); above 80 µM in assay [1] (run 2, dose range 1); above 80 µM in assay [1] (run 3, dose range 1); > 80 µM (inactive) in assay [2] (dose range 1); above 80 µM in assay [2] (setting [5]); above 80 µM in assay [3] (setting [6]). For the same compound, the half-maximal inhibitory concentration (IC50) in assay [3] (CCR6, run 2, dose range 1) is above 80 µM; in assay [4] (CXCR6, dose range 1), > 80 µM (inactive); in assay [4] (setting [7]), above 80 µM; in assay [4] (CXCR6, run 2, dose range 1) it was above 80 µM. The inhibition in assay [4] is 4.14%.
